{
  "source": "patent US20230190728A1",
  "about": "“NEW THERAPEUTIC USES OF COMPOUNDS” (PROXIMAGEN, LLC, priority 2020, published 2023)",
  "system": "male C57BI/6 mice",
  "test": "LPS-Induced Pulmonary Inflammation Study",
  "format": "in vivo",
  "details": "for average lavage TNFα: lavage supernatant, ELISA",
  "experimental": "This study was to test the efficacy of orally administered compounds as disclosed herein to reduce LPS-induced inflammatory cell infiltration of the lungs, and was carried out in male C57BI/6 mice.\nDay 11: Groups 1 and 2 were administered 10% HP-β-CD. Group 3: 7.59 mg dexamethasone 21-phosphate disodium salt (Sigma, Cat. D1159, lot 88H1020, SF 1.316) was dissolved in […] HP-β-CD to prepare a 0.2 mg/mL solution. Group 4: 1 mg Example 7 was dissolved in 4.5 mL HP-β-CD and 7 µL 1 M HCI (MP Biomedicals, Cat. 194055, lot 3956H) with alternating sonication and vortexing. The pH was adjusted by addition of 5 µL 1 M NaOH and the volume brought up to 5 mL with 0.488 mL HP-β-CD to yield a 0.2 mg/mL solution. Group 5: 3 mg Example 7 was dissolved in 4.5 mL HP-β-CD and 20 µL 1 M HCI with alternating sonication and vortexing. The pH was adjusted by addition of 16 µL 1 M NaOH and the volume brought up to 5 mL with 0.464 mL HP-β-CD to yield a 0.6 mg/ mL solution. Group 6: 10 mg Example 7 was dissolved in 4.5 mL HP-β-CD and 66 µL 1 M HCI with alternating sonication and vortexing. The pH was adjusted by addition of 53 µL 1 M NaOH and the volume brought up to 5 mL with 0.381 mL HP-β-CD to yield a 2 mg/mL solution.\n25.7 mg lipopolysaccharides (LPS) from E. coli strain 055:B5 (Sigma, Cat. L2880, lot 025M4040V) was dissolved in 2.57 mL sterile saline (Hospira, lot 56-836-FW) to prepare a 10 mg/mL solution.\nThe mice were numbered, weighed, and dosed orally at 10 mL/kg as in Table 5.\nAn hour later, the mice were anesthetized, a midline incision was made in the neck, the muscle layers separated by blunt dissection, and 2 mL/kg LPS (20 mg/kg) injected into the trachea (Groups 2-6). The incision was closed with wound clips and the mice returned to cages. Group 1 received 2 mL/kg saline.\nSix hours after LPS/saline injection, the mice were anesthetized, the wound clips removed, the trachea was cannulated with a 23 G needle blunt, and the lungs lavaged eight times with 0.5 mL heparinized saline. The lavage was pooled, gently inverted, and a sample retained for white blood cell (WBC) counts and differential analysis. The remainder of the lavage was centrifuged, the supernatants dispensed to one aliquot in labelled Eppendorf tubes which were stored at -80° C. The carcasses were disposed of appropriately.\nDay 14: The aliquot of lung lavage supernatant was equilibrated to room temperature, diluted 1:2 and assayed for TNFα by ELISA (R&D Systems, Cat. MTA00B, lot 332141).",
  "key": {"[1]": {"details": "2 mg/kg oral, one hour pre-treatment (Group 4), did not reach statistical significance"}, "[2]": {"details": "6 mg/kg oral, one hour pre-treatment (Group 5)"}, "[3]": {"details": "20 mg/kg oral, one hour pre-treatment (Group 6)"}},
  "data": [
    {"smiles": "CS(=O)(=O)N1CCN(c2ccc(-c3nc4ccncc4n3-c3ccc(F)cc3)cn2)CC1", "note": "[Example 7, 1-{5-[3-(4-Fluorophenyl)-3H-Imidazo[4,5-C]Pyridin-2-Yl]Pyridin-2-Yl}-4-Methanesulfonylpiperazine]", "values": [
      {"measurement": "reduction in infiltrating inflammatory cells", "setting": "[1]", "value": 3, "unit": "%"},
      {"measurement": "reduction in lavage TNFα content", "setting": "[1]", "value": 10, "unit": "%"},
      {"measurement": "reduction in neutrophils in the lavage fluid", "setting": "[1]", "value": 27, "unit": "%"},
      {"measurement": "reduction in neutrophils in the lavage fluid", "setting": "6 mg/kg oral, one hour pre-treatment", "value": 97, "unit": "%"},
      {"measurement": "reduction in infiltrating inflammatory cells", "setting": "[2]", "value": 70, "unit": "%"},
      {"measurement": "reduction in lavage TNFα content", "setting": "[2]", "value": 65, "unit": "%"},
      {"measurement": "reduction in neutrophils in the lavage fluid", "setting": "20 mg/kg oral, one hour pre-treatment", "value": 97, "unit": "%"},
      {"measurement": "reduction in infiltrating inflammatory cells", "setting": "[3]", "value": 93, "unit": "%"},
      {"measurement": "reduction in lavage TNFα content", "setting": "[3]", "value": 74, "unit": "%"},
      {"measurement": "effect of one hour oral pre-treatment on all measured parameters", "setting": "2, 6, 20 mg/kg oral prior to LPS challenge, in words", "value": "significant dose-dependent reduction in all measured parameters"},
      {"measurement": "effect of oral pre-treatment on LPS-induced pulmonary Neutrophil infiltration", "setting": "FIG. 1, in words", "value": "decreases neutrophil infiltration in lung tissue"},
      {"measurement": "effect of oral pre-treatment on LPS-induced pulmonary lavage TNFa content", "setting": "FIG. 2, in words", "value": "decreases TNFa content in pulmonary lavage"},
      {"measurement": "average lavage TNFα", "setting": "Group 4, 2 mg/kg oral 1 h before LPS, Mean SD", "value": 337.00, "unit": "pg/mL"},
      {"measurement": "Neutrophils", "setting": "Group 4, 2 mg/kg oral 1 h before LPS, lung lavage 6 h after LPS, Mean SD", "value": "583 204"},
      {"measurement": "average lavage TNFα", "setting": "Group 5, 6 mg/kg oral 1 h before LPS, Mean SD", "value": 132.90, "unit": "pg/mL"},
      {"measurement": "average lavage TNFα", "setting": "Group 6, 20 mg/kg oral 1 h before LPS, Mean SD", "value": 98.87, "unit": "pg/mL"}
    ]}
  ]
}
